Data taken from ChEMBL document CHEMBL4630901 (2021).

Legend:
[1] = target: T1, 5-hydroxytryptamine receptor 1A (Homo sapiens) (UniProt P08908); details: Compound concentration 10.0 uM
T1 sequence (whole entry): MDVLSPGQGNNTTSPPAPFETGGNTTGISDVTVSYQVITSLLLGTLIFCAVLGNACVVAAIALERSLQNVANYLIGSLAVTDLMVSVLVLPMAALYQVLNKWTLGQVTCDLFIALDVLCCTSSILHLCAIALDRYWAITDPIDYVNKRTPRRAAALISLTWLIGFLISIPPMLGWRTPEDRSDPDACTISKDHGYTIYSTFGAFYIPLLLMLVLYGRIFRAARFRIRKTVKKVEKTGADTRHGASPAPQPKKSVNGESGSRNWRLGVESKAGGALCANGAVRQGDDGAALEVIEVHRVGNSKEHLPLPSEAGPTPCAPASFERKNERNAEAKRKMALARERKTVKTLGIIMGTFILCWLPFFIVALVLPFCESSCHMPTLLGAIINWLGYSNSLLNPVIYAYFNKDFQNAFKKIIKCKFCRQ

[2] = target: GABA-A receptor; anion channel (Rattus norvegicus) (UniProt O09028+P15431+P18506+P18508+P19969+P20236+P23574+P23576+P28471+P28473+P30191+P62813+P63079+P63138+Q91ZM7+Q9ES14); details: Compound concentration 10.0 uM
[3] = target: T2, Prostaglandin E2 receptor EP1 subtype (Homo sapiens) (UniProt P34995); test: Prostanoid EP1 Eurofins-Panlabs radioligand binding assay; parameters: ligand concentration 1 nM
T2 sequence (whole entry): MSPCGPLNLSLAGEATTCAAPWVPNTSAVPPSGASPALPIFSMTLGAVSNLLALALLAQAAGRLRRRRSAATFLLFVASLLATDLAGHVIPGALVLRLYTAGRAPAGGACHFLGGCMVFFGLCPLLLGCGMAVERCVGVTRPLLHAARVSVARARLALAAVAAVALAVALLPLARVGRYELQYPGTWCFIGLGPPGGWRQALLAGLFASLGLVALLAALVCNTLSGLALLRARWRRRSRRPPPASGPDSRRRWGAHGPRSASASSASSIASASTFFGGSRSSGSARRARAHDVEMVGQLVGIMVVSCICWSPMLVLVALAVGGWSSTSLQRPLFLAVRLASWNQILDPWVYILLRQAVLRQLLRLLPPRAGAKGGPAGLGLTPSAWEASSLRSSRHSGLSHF

[4] = target: T3, 5-hydroxytryptamine receptor 2C (Homo sapiens) (UniProt P28335); details: Compound concentration 10.0 uM
T3 sequence (whole entry): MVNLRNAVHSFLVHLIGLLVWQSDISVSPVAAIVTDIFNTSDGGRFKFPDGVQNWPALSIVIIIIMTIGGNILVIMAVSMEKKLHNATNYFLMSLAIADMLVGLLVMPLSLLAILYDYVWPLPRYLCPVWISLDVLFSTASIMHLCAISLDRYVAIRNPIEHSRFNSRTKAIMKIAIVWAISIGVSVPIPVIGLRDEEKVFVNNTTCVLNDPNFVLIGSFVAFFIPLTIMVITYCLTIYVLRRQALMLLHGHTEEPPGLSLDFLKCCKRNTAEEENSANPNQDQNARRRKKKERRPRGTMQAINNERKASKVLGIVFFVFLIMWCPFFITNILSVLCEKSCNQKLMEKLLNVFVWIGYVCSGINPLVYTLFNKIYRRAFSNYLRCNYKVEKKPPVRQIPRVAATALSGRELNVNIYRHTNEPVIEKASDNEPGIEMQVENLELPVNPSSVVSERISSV

[5] = target: Growth hormone secretagogue receptor type 1 (Homo sapiens) (UniProt Q92847); details: Compound concentration 10.0 uM

Measured: inhibition

Sequence of Growth hormone secretagogue receptor type 1 (Homo sapiens) (Q92847 whole entry): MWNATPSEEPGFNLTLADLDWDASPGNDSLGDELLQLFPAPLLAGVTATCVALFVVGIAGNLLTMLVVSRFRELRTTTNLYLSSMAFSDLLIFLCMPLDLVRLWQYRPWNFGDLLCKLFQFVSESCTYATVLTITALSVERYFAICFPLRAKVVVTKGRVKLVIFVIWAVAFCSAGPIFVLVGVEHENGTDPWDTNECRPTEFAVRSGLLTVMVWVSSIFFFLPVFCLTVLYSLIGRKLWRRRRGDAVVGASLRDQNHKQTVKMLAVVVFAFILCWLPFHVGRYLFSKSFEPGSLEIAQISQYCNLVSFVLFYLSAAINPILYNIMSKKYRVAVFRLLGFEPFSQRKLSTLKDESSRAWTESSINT

Cc1c(N2CCCC2)nc2ccc(Br)cc2c1C(=O)NC[C@H](CCC(=O)O)c1ccccc1Cl [BAY-6672]
inactive: [1] 3% | [2] 6% | [3]; Compound concentration 0.001 uM 11% | [3]; Compound concentration 0.01 uM -2% | [3]; Compound concentration 0.1 uM 1% | [3]; Compound concentration 1.0 uM -5% | [3]; Compound concentration 10.0 uM 22% | [4] 16% | [5] 3%
